In PubChem BioAssay AID250 (DTP/NCI, 2004):
Several values for one entry are separate records, joined by “and”; a condition that tells them apart may be missing. Equal values may be shown once. Toxic doses and inconclusive results are not listed.

Test system: BDF1 mice, L1210 leukemia sc, survival T/C
Test: NCI In Vivo Anticancer Drug Screen. Data for tumor model L1210 Leukemia (subcutaneous) in B6D2F1 (BDF1) mice
Conditions: endpoint: median survival time, higher = longer survival
Outline: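 Read-out: T/C ratio, i.e. survival or tumor size in treated mice over that in vehicle-treated controls, from mice bearing transplantable tumors.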

Structure (SMILES): CC(=O)OCC1OC(n2ccc(N)nc2=O)C(OC(C)=O)C1OC(C)=O (stereo not drawn)
- T/C (dose: 20.0 mg/kg/injection, schedule: Q01DX Z (oral), vehicle: carboxymethylcellulose (CMC)): 220 % of control
- T/C (dose: 20.0 mg/kg/injection, schedule: Q01DX Z (sc), vehicle: carboxymethylcellulose (CMC)): 290 % of control
- T/C (dose: 40.0 mg/kg/injection, schedule: Q01DX Z (oral), vehicle: carboxymethylcellulose (CMC)): 255 % of control
- T/C (dose: 40.0 mg/kg/injection, schedule: Q01DX Z (sc), vehicle: carboxymethylcellulose (CMC)): 360 % of control
- T/C (dose: 80.0 mg/kg/injection, schedule: Q01DX Z (oral), vehicle: carboxymethylcellulose (CMC)): 270 % of control
- T/C (dose: 80.0 mg/kg/injection, schedule: Q01DX Z (sc), vehicle: carboxymethylcellulose (CMC)): 360 % of control
- T/C (dose: 160.0 mg/kg/injection, schedule: Q01DX Z (oral), vehicle: carboxymethylcellulose (CMC)): 260 % of control
- T/C (dose: 160.0 mg/kg/injection, schedule: Q01DX Z (sc), vehicle: carboxymethylcellulose (CMC)): 225 % of control
- T/C (dose: 320.0 mg/kg/injection, schedule: Q01DX Z (oral), vehicle: carboxymethylcellulose (CMC)): 320 % of control

Structure (SMILES): O=C1CN=C(c2ccc[nH]2)c2cc(Cl)ccc2N1
- T/C (dose: 2.5 mg/kg/injection, schedule: Q01DX009 (ip), vehicle: clinical formulation): 100 % of control
- T/C (dose: 2.5 mg/kg/injection, schedule: Q01DX009 (sc), vehicle: clinical formulation): 88 % of control
- T/C (dose: 5.0 mg/kg/injection, schedule: Q01DX009 (ip), vehicle: clinical formulation): 100 % of control
- T/C (dose: 5.0 mg/kg/injection, schedule: Q01DX009 (sc), vehicle: clinical formulation): 88 % of control
- T/C (dose: 10.0 mg/kg/injection, schedule: Q01DX009 (ip), vehicle: clinical formulation): 88 % of control
- T/C (dose: 10.0 mg/kg/injection, schedule: Q01DX009 (sc), vehicle: clinical formulation): 88 % of control
- T/C (dose: 12.5 mg/kg/injection, schedule: Q01DX009 (ip), vehicle: Klucel (hydroxypropylcellulose) (HPC)): 100 % of control
- T/C (dose: 12.5 mg/kg/injection, schedule: Q01DX009 (sc), vehicle: Klucel (hydroxypropylcellulose) (HPC)): 94 % of control
- T/C (dose: 20.0 mg/kg/injection, schedule: Q01DX009 (ip), vehicle: clinical formulation): 100 % of control
- T/C (dose: 20.0 mg/kg/injection, schedule: Q01DX009 (sc), vehicle: clinical formulation): 88 % of control
- T/C (dose: 25.0 mg/kg/injection, schedule: Q01DX009 (ip), vehicle: Klucel (hydroxypropylcellulose) (HPC)): 88 % of control
- T/C (dose: 25.0 mg/kg/injection, schedule: Q01DX009 (sc), vehicle: Klucel (hydroxypropylcellulose) (HPC)): 100 % of control
- T/C (dose: 40.0 mg/kg/injection, schedule: Q01DX009 (ip), vehicle: clinical formulation): 100 % of control
- T/C (dose: 40.0 mg/kg/injection, schedule: Q01DX009 (sc), vehicle: clinical formulation): 88 % of control
- T/C (dose: 50.0 mg/kg/injection, schedule: Q01DX009 (ip), vehicle: Klucel (hydroxypropylcellulose) (HPC)): 100 % of control
- T/C (dose: 50.0 mg/kg/injection, schedule: Q01DX009 (ip), vehicle: steriod suspending solution): 111 % of control
- T/C (dose: 50.0 mg/kg/injection, schedule: Q01DX009 (sc), vehicle: Klucel (hydroxypropylcellulose) (HPC)): 100 % of control
- T/C (dose: 50.0 mg/kg/injection, schedule: Q01DX009 (sc), vehicle: steriod suspending solution): 100 % of control
- T/C (dose: 80.0 mg/kg/injection, schedule: Q01DX009 (ip), vehicle: clinical formulation): 88 % of control
- T/C (dose: 80.0 mg/kg/injection, schedule: Q01DX009 (ip), vehicle: other): 100 % of control
- T/C (dose: 80.0 mg/kg/injection, schedule: Q01DX009 (sc), vehicle: clinical formulation): 100 % of control
- T/C (dose: 100.0 mg/kg/injection, schedule: Q01DX009 (ip), vehicle: Klucel (hydroxypropylcellulose) (HPC)): 155 % of control
- T/C (dose: 100.0 mg/kg/injection, schedule: Q01DX009 (ip), vehicle: steriod suspending solution): 111 % of control
- T/C (dose: 100.0 mg/kg/injection, schedule: Q01DX009 (sc), vehicle: Klucel (hydroxypropylcellulose) (HPC)): 111 % of control
- T/C (dose: 100.0 mg/kg/injection, schedule: Q01DX009 (sc), vehicle: steriod suspending solution): 100 % of control
- T/C (dose: 100.0 mg/kg/injection, schedule: Q08DX009 (sc), vehicle: Klucel (hydroxypropylcellulose) (HPC)): 100 % of control and 101 % of control
- T/C (dose: 200.0 mg/kg/injection, schedule: Q01DX009 (ip), vehicle: steriod suspending solution): 111 % of control
- T/C (dose: 200.0 mg/kg/injection, schedule: Q01DX009 (sc), vehicle: Klucel (hydroxypropylcellulose) (HPC)): 172 % of control
- T/C (dose: 200.0 mg/kg/injection, schedule: Q01DX009 (sc), vehicle: steriod suspending solution): 105 % of control
- T/C (dose: 200.0 mg/kg/injection, schedule: Q08DX009 (sc), vehicle: Klucel (hydroxypropylcellulose) (HPC)): 105 % of control
- T/C (dose: 400.0 mg/kg/injection, schedule: Q01DX009 (ip), vehicle: steriod suspending solution): 150 % of control
- T/C (dose: 400.0 mg/kg/injection, schedule: Q01DX009 (sc), vehicle: Klucel (hydroxypropylcellulose) (HPC)): 183 % of control
- T/C (dose: 400.0 mg/kg/injection, schedule: Q01DX009 (sc), vehicle: steriod suspending solution): 166 % of control
- T/C (dose: 400.0 mg/kg/injection, schedule: Q08DX009 (sc), vehicle: Klucel (hydroxypropylcellulose) (HPC)): 98 % of control and 100 % of control
- T/C (dose: 800.0 mg/kg/injection, schedule: Q01DX009 (sc), vehicle: steriod suspending solution): 166 % of control
- T/C (dose: 2313.0 mg/kg/injection, schedule: Q01DX009 (sc), vehicle: Klucel (hydroxypropylcellulose) (HPC)): 88 % of control and 93 % of control
- T/C (dose: 3855.0 mg/kg/injection, schedule: Q01DX009 (sc), vehicle: Klucel (hydroxypropylcellulose) (HPC)): 87 % of control

Structure (SMILES): N[C@H](C(=O)O)[C@@H]1CC(Cl)=NO1
- T/C (dose: 1.0 mg/kg/injection, schedule: Q01DX009 (sc), vehicle: saline): 113 % of control
- T/C (dose: 2.0 mg/kg/injection, schedule: Q01DX009 (sc), vehicle: saline): 150 % of control
- T/C (dose: 4.0 mg/kg/injection, schedule: Q01DX009 (sc), vehicle: saline): 159 % of control
- T/C (dose: 8.0 mg/kg/injection, schedule: Q01DX009 (sc), vehicle: saline): 151 % of control and 172 % of control
- T/C (dose: 16.0 mg/kg/injection, schedule: Q01DX009 (sc), vehicle: saline): 162 % of control
- T/C (dose: 32.0 mg/kg/injection, schedule: Q01DX009 (sc), vehicle: saline): 159 % of control
- T/C (dose: 64.0 mg/kg/injection, schedule: Q01DX009 (sc), vehicle: saline): 154 % of control

Structure (SMILES): CCSc1nc(Cl)cc(Sc2nc(N)nc3nc[nH]c23)n1
- T/C (dose: 97.5 mg/kg/injection, schedule: Q01DX Z (sc), vehicle: methylcellulose (MC)): 100 % of control
- T/C (dose: 156.0 mg/kg/injection, schedule: Q01DX Z (sc), vehicle: methylcellulose (MC)): 100 % of control
- T/C (dose: 250.0 mg/kg/injection, schedule: Q01DX Z (sc), vehicle: methylcellulose (MC)): 100 % of control
- T/C (dose: 400.0 mg/kg/injection, schedule: Q01DX Z (sc), vehicle: methylcellulose (MC)): 100 % of control
- T/C (dose: 640.0 mg/kg/injection, schedule: Q01DX Z (sc), vehicle: methylcellulose (MC)): 95 % of control
